Where a name gives a salt, the structure may show the parent alone.
Key:
[1] = system: Human thrombocytes; assay: Inhibition of the binding of 3H-BIBU 52 to human thrombocytes (platelets); conditions: human thrombocytes in plasma; 3H-BIBU 52 5 nM; 20 minutes, ambient temperature; read-out: 3H-BIBU 52-binding test IC50
Protocol: 1. Inhibition of the binding of ^3 H-BIBU 52 to Human thrombocytes […] Case 5/1093-FL) and various concentrations of the test substance. The free and bound ligand are separated by centrifuging and quantitatively measured by scintillation counting. From the measurements obtained the inhibition of ^3 H-BIBU 52 binding caused by the test substance is determined. In order to do this, donor blood is taken from an anticubital vein and anti-coagulated with trisodium citrate (final concentration 13 mM). The blood is centrifuged for 10 minutes at 170×g and the supernatant platelet-rich plasma (PRP) is removed. The remaining blood is centrifuged vigorously once more in order to recover plasma. The PRP is diluted with autologous plasma 1:10. 750 μl are incubated for 20 minutes at ambient temperature with 50 μl of physiological saline solution, 100 μl of test substance solution, 50 μl of ^14 C-sucrose (3700 Bq) and 50 μl of ^3 H-BIBU 52 (final concentration: 5 nM). In order to measure the non specific binding, 5 μl of BIBU 52 (final concentration 30 μM) are used instead of the test substance. […] The pellet is dissolved in 500 μl of 0.2N NaOH, 450 μl are mixed with 2 ml of scintallator and 25 μl of 5N HCl, and measured. The residual plasma remaining in the pellet is determined from the ^14 C-content, and the bound ligand is determined from the ^3 H-measurement. After substracting the non specific binding, the pellet activity is plotted against the concentration of the test substance and the concentration for 50% inhibition of binding is determined. A. Inhibition of the binding of ^3 H-BIBU 52 to human platelets […] The free and bound ligand is separated by centrifugation and determined quantitatively by scintillation counting. The inhibition of ^3 H-BIBU 52 binding by the test substance is determined from the measurements. For this purpose, donor blood is taken from an antecubital vein and anticoagulated with trisodium citrate (final concentration 13 mM). The blood is centrifuged at 170×g for 10 minutes, and the supernatant platelet-rich plasma (PRP) is removed. The remaining blood is thoroughly centrifuged once again to obtain plasma. The PRP is diluted 1:10 with autologous plasma. […] are incubated with […] of physiological saline, […] of test substance solution, […] of ^14 C-sucrose (3700 Bq) and 50 ml of ^3 H-BIBU 52 (final concentration: 5 nM) at room temperature for 20 minutes. To measure the nonspecific binding, 5 ml of BIBU 52 (final concentration: […]) are used in place of the test substance. […] The pellet is dissolved in 500 ml of 0.2N NaOH, and 450 ml are mixed with 2 ml of scintillator and 25 ml of 5N HCl and measured. The remaining plasma still present in the pellet is determined from the ^14 C content, and the bound ligand is determined from the ^3 H measurement. After subtraction of the nonspecific binding, the activity in the pellet is plotted against the concentration of test substance, and the concentration for 50% inhibition of binding is found.

[2] = system: Thrombocyte aggregation (collagen-induced); assay: Collagen-induced platelet aggregation in platelet-rich plasma (Born and Cross method); assay type: cell-based; conditions: Homo sapiens, 10 min, platelet-rich plasma of healthy volunteers, 10 minutes incubation at 37° C., compounds of general formula I, read-out: Inhibition of platelet aggregation EC50
Protocol: 2. Antithrombotic activity Thrombocyte aggregation is measured using the Born and Cross method (J. Physiol. 170: 397 (1964)) in platelet-rich plasma taken from healthy volunteers. To inhibit coagulation the blood is mixed with 3.14% sodium citrate in a ratio by volume of 1:10. Collagen-induced aggregation The pattern of the decrease in optical density of the platelet suspension is photometrically measured and recorded after the addition of the aggregation-triggering substance. The rate of aggregation is determined from the angle of inclination of the density curve. The point on the curve where there is maximum light transmittance is used to calculate the optical density. The amount of collagen used is as small as possible but sufficient to produce an irreversible reaction curve. Standard commercial collagen produced by Hormonchemie of Munich is used. Before the addition of the collagen the plasma is incubated for 10 minutes with the test substance at 37° C. From the measurements obtained, an EC50 is determined graphically, indicating a 50% change in the optical density in terms of the inhibition of aggregation. B. Antithrombotic effect Platelet aggregation is measured by the method of Born and Cross (J. Physiol. 170, 397 (1964)) in platelet-rich plasma from healthy test subjects. For anticoagulation, sodium citrate 3.14% is added to the blood in the ratio 1:10 by volume. Collagen-induced aggregation The course of the decrease in optical density of the platelet suspension is measured and recorded photometrically after addition of the aggregation-inducing substance. The rate of aggregation is established from the angle of inclination of the density plot. The point on the plot at which the transmission of light is a maximum is used to calculate the optical density. The amount of collagen is chosen to be as small as possible but sufficient for the reaction plot to have an irreversible course. The collagen commercially obtainable from Hormonchemie, Munich, is used. Before the addition of collagen the plasma is in each case incubated with the substance at 37° C. for 10 minutes. An EC50 which relates to a 50% change in the optical density in the sense of inhibition of aggregation is determined graphically from the measured results.

[3] = system: mice; assay: Tolerance after intravenous administration in mice; assay type: in vivo; conditions: mice (three), 30 mg/kg
[4] = system: collagen-induced thrombocyte aggregation; assay: Inhibition of collagen-induced thrombocyte aggregation ex vivo after oral administration; assay type: in vivo; conditions: Rhesus monkeys; oral administration of 1 mg/kg

SMILES | IC50 [1] | EC50 [2] | deaths / tolerance after intravenous administration [3] | duration of inhibition of collagen-induced thrombocyte aggregation ex vivo [4]
CN1CCc2ccc(N3CCN(c4ccc(CCC(=O)O)cc4)C3=O)cc2CC1 [8(1), 1-[4-(2-carboxyethyl)phenyl]-3-(3-methyl-2,3,4,5-tetrahydro-1H-3-benzazepin-7-yl)-imidazolidin-2-one-hydrochloride×1.5 water] | 36 nM | 150 nM | none of the three test animals died | 
CN1CCc2ccc(N3CCN([C@H]4CC[C@H](CCC(=O)O)CC4)C3=O)cc2CC1.Cl [Example 19, 1-[trans-4-(2-Carboxyethyl)cyclohexyl]-3-(3-methyl-2,3,4,5-tetrahydro-1H-3-benzazepin-7-yl)-imidazolidin-2-one-hydrochloride] | 59 nM | 230 nM | none of the three test animals died | more than 8 hours

— patent US5827849A, “Cyclic dericatives, pharmaceutical compositions containing these compounds and processes for preparing them” (Karl Thomae GmbH, priority 1993, dated 1998)
